This series can be described thus: Broadband acoustic resonance dissolution spectroscopy (BARDS) dissolution profile in distilled water. The class given is physicochemical. Particulars: 0.4M in 100 ml of double distilled water.

Procedure: The inside of the glass was cleaned with distilled water whilst ensuring the outside of the glass is dry with particular care taken to prevent moisture from affecting the microphone. The microphone is placed on the outside of the glass, 5 cm above the 100 ml volume of water and 1.8 cm from the top of the glass. Securing the microphone above the volume line delivers a better spectrum and the distances aid in reproducibility. The microphone and the wire connection to the glass are secured with adhesive tape. 100 mls of distilled water is accurately poured into the glass and set stirring using a magnetic stirrer. The stirring solution is recorded for 30 seconds prior to addition of the analyte compound to record the resonant frequencies of the vessel (spectrum background). The concentration of the analyte compound is 1.37 M where saturation levels allow. The analyte compound is added carefully all at once from a weighing boat to the stirring solution, with care taken to ensure no sample is lost to the glass sides. The sample spectrum is recorded for a total of 800 seconds. Raw data was saved in .wav format files. From these files the spectrum can be replayed acoustically with any media program. This allows data points to be selected using the mouse cursor and saved in a text format file for transplantation into a data manipulation program such as Excel™ or Sigmaplot™. […]

For the compound `O=S(=O)([O-])[O-].[Cu+2]` [anhydrous form, Anhydrous copper sulphate], the “time required for complete dissolution” value amounted to 75 s.

The record behind these values is patent publication US8813566B2, “Instrumentation and analytical techniques suitable for broadband acoustic resonance dissolution spectroscopy” (University College Cork—National University of Ireland, priority 2008, dated 2014).
